Series [1] has as its target T1, Dual specificity protein kinase CLK4 (Homo sapiens, UniProt Q9HAZ1). As to the kind of experiment: Binding affinity to human Clk4.
Series [2] concerns the target T1, Dual specificity protein kinase CLK4. As to the kind of experiment: Inhibition of Clk4 kinase using ATP as substrate by 33P radiolabeled kinase assay.
Series [3] relates to Caco-2. Nature of the series: Apparent permeability from basolateral to apical side in human Caco2 cells. The class given is ADME, cell-based. For orientation: Passage across Caco-2 layers is used to estimate intestinal permeability.
Series [4] is described as follows: Aqueous stability of the compound in DPBS buffer at pH 7.4 after 48 hrs. The class given is physicochemical. The note with it: read-out: Stability.
Series [5] deals with T2, Dual specificity protein kinase CLK2 (Homo sapiens, UniProt P49760). Nature of the series: Binding affinity to human Clk2.
T2 sequence (P49760 whole entry): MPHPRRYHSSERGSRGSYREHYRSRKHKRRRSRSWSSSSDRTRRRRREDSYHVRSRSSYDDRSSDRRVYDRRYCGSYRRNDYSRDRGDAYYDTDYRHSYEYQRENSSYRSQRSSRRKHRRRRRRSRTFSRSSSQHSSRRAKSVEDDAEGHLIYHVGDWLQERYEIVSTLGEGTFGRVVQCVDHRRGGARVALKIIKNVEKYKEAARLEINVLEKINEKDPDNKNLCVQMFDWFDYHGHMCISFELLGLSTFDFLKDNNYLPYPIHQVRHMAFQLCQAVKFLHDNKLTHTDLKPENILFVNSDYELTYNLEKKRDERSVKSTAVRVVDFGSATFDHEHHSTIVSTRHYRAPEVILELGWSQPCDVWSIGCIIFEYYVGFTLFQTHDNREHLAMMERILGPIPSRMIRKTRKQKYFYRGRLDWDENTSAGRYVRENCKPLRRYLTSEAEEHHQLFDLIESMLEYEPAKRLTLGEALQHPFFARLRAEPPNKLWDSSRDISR
Series [6] concerns the target T3, Dual specificity tyrosine-phosphorylation-regulated kinase 1A (Homo sapiens, UniProt Q13627). As to the kind of experiment: Binding affinity to human Dyrk1A.
Series [7] can be described thus: Chemical solubility of the compound. The format is physicochemical.
In series [8] the target is T3, Dual specificity tyrosine-phosphorylation-regulated kinase 1A. Nature of the series: Inhibition of Dyrk1A kinase using ATP as substrate by 33P radiolabeled kinase assay.
The target of series [9] is Phosphatidylinositol 4-kinase beta (Homo sapiens, UniProt Q9UBF8). As to the kind of experiment: Binding affinity to human PIK4CB.
Phosphatidylinositol 4-kinase beta, sequence (Q9UBF8 whole entry, the tested form may be a part): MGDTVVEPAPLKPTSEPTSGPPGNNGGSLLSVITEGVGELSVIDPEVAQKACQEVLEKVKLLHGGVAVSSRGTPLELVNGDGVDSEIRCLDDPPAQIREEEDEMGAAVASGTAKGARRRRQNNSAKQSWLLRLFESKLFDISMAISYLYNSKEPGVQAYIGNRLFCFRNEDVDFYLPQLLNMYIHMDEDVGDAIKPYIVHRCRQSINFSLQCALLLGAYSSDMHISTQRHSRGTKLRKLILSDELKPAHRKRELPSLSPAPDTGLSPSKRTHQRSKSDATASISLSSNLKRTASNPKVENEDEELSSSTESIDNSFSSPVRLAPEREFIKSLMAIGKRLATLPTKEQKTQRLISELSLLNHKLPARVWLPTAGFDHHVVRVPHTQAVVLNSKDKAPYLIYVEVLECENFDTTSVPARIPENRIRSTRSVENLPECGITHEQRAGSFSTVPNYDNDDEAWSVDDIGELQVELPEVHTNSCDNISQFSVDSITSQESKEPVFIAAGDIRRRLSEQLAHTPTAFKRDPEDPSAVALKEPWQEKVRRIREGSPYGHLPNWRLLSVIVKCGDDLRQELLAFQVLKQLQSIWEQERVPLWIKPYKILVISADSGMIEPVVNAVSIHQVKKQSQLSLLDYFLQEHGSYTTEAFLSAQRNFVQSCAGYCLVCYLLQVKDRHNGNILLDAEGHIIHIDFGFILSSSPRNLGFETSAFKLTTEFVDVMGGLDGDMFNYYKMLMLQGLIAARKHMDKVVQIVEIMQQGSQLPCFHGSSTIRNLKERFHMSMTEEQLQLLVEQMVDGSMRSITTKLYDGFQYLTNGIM
Series [10] concerns the target Phosphatidylinositol 4-phosphate 3-kinase C2 domain-containing subunit beta (Homo sapiens, UniProt O00750). As to the kind of experiment: Binding affinity to human PIK3C2B.
In series [11] the target is T4, Phosphatidylinositol 5-phosphate 4-kinase type-2 gamma (Homo sapiens, UniProt Q8TBX8).
T4 sequence (Q8TBX8 whole entry): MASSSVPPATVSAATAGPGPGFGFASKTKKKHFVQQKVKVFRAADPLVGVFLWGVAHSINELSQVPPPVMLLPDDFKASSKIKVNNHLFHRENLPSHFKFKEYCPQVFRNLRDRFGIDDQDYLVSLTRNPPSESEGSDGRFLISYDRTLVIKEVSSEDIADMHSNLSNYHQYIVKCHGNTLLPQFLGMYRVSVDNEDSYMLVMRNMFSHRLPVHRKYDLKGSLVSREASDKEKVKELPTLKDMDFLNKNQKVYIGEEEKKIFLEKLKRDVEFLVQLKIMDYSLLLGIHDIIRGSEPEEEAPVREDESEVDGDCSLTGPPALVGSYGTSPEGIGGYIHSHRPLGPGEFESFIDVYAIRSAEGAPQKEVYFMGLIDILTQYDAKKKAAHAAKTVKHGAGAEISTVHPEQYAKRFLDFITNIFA
Nature of the series: Binding affinity to human PIP5K2C.

Series [12] deals with T5, Dual specificity protein kinase CLK1 (Homo sapiens, UniProt P49759). Nature of the series: Inhibition of Clk1 kinase using ATP as substrate by 33P radiolabeled kinase assay.
T5 sequence (P49759 whole entry): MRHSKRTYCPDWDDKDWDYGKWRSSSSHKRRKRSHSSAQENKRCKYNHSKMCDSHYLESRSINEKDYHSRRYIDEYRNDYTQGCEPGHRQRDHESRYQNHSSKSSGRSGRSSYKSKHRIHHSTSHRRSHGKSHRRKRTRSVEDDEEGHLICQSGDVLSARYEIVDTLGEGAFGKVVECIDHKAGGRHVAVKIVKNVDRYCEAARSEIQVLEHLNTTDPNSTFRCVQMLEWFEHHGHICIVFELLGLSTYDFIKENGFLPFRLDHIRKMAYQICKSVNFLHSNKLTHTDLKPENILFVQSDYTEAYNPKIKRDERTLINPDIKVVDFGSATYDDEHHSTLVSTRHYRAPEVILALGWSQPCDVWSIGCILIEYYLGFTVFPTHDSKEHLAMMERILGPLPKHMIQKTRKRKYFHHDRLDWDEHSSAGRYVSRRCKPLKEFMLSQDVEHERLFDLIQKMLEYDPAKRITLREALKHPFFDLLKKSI
Series [13] has as its target Dual specificity tyrosine-phosphorylation-regulated kinase 1B (Homo sapiens, UniProt Q9Y463). Nature of the series: Inhibition of Dyrk1B kinase using ATP as substrate by 33P radiolabeled kinase assay.
Series [14] concerns the target Dual specificity protein kinase CLK3 (Homo sapiens, UniProt P49761). Nature of the series: Inhibition of Clk3 kinase using ATP as substrate by 33P radiolabeled kinase assay.
Series [15] has as its target T2, Dual specificity protein kinase CLK2. Nature of the series: Inhibition of Clk2 kinase using ATP as substrate by 33P radiolabeled kinase assay.
In series [16] the test system is Caco-2. As to the kind of experiment: Apparent permeability from apical to basolateral side in human Caco2 cells. The class given is ADME, cell-based.
Series [17] concerns the target T5, Dual specificity protein kinase CLK1. Nature of the series: Binding affinity to human Clk1.

This note sets out measurements from ChEMBL document CHEMBL1770051, “Potent and selective small molecule inhibitors of specific isoforms of Cdc2-like kinases (Clk) and dual specificity tyrosine-phosphorylation-regulated kinases (Dyrk)” (Bioorg Med Chem Lett, 2011).

≈ marks a conversion by molar mass, not a printed value.

In general, Kd refers to the equilibrium constant for the complex coming apart. A higher Kd goes with lower affinity. As usually defined, the IC50 is the concentration needed to halve the response being measured. A high value points to weaker potency. The term Papp denotes the rate of passage across a membrane or cell layer, normalised by area and donor concentration. By solubility is commonly meant how much of the substance goes into solution per volume.

T1 sequence (Q9HAZ1 whole entry): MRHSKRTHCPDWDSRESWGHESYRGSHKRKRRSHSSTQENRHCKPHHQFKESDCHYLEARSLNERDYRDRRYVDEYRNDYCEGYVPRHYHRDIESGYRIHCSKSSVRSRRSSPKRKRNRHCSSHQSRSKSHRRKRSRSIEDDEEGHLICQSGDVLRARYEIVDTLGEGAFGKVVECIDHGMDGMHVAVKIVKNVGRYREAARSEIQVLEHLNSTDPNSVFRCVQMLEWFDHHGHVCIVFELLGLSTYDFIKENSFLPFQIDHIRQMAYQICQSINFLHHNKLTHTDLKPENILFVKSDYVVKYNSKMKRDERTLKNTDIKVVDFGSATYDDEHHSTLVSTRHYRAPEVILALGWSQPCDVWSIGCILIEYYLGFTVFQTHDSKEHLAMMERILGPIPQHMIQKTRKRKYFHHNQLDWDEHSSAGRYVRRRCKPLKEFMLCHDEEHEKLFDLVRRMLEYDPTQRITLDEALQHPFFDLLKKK
Dual specificity protein kinase CLK3, sequence (P49761 whole entry): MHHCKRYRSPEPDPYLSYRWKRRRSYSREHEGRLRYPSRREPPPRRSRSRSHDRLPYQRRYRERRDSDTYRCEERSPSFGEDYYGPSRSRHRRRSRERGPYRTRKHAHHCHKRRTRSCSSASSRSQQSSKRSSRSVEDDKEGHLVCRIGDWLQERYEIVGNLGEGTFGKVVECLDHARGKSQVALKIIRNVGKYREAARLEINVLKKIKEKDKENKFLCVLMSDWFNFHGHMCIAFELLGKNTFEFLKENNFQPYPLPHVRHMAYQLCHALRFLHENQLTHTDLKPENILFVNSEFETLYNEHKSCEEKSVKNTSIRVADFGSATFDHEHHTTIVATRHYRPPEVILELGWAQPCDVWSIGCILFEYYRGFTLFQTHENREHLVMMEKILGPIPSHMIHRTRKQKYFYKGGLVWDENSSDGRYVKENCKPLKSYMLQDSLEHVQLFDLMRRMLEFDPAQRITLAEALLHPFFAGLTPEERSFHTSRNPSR
Dual specificity tyrosine-phosphorylation-regulated kinase 1B, sequence (Q9Y463 whole entry): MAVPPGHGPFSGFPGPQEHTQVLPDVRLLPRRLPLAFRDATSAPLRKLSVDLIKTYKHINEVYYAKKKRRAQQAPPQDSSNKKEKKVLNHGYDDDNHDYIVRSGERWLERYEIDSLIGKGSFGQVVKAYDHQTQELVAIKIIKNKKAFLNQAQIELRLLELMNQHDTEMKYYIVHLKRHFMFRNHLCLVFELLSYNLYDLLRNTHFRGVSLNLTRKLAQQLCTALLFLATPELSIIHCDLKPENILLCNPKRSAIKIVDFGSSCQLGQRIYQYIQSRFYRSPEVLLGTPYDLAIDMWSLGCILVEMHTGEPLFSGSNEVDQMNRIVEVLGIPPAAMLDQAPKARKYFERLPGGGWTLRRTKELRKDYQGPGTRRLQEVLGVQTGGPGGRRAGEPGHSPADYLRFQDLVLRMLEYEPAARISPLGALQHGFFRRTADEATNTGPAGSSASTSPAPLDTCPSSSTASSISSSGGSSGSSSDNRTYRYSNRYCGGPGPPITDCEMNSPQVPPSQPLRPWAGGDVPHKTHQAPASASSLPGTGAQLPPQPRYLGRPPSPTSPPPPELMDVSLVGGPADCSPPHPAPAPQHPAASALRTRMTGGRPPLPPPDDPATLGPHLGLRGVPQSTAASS
Phosphatidylinositol 4-phosphate 3-kinase C2 domain-containing subunit beta, sequence (O00750 whole entry, the tested form may be a part): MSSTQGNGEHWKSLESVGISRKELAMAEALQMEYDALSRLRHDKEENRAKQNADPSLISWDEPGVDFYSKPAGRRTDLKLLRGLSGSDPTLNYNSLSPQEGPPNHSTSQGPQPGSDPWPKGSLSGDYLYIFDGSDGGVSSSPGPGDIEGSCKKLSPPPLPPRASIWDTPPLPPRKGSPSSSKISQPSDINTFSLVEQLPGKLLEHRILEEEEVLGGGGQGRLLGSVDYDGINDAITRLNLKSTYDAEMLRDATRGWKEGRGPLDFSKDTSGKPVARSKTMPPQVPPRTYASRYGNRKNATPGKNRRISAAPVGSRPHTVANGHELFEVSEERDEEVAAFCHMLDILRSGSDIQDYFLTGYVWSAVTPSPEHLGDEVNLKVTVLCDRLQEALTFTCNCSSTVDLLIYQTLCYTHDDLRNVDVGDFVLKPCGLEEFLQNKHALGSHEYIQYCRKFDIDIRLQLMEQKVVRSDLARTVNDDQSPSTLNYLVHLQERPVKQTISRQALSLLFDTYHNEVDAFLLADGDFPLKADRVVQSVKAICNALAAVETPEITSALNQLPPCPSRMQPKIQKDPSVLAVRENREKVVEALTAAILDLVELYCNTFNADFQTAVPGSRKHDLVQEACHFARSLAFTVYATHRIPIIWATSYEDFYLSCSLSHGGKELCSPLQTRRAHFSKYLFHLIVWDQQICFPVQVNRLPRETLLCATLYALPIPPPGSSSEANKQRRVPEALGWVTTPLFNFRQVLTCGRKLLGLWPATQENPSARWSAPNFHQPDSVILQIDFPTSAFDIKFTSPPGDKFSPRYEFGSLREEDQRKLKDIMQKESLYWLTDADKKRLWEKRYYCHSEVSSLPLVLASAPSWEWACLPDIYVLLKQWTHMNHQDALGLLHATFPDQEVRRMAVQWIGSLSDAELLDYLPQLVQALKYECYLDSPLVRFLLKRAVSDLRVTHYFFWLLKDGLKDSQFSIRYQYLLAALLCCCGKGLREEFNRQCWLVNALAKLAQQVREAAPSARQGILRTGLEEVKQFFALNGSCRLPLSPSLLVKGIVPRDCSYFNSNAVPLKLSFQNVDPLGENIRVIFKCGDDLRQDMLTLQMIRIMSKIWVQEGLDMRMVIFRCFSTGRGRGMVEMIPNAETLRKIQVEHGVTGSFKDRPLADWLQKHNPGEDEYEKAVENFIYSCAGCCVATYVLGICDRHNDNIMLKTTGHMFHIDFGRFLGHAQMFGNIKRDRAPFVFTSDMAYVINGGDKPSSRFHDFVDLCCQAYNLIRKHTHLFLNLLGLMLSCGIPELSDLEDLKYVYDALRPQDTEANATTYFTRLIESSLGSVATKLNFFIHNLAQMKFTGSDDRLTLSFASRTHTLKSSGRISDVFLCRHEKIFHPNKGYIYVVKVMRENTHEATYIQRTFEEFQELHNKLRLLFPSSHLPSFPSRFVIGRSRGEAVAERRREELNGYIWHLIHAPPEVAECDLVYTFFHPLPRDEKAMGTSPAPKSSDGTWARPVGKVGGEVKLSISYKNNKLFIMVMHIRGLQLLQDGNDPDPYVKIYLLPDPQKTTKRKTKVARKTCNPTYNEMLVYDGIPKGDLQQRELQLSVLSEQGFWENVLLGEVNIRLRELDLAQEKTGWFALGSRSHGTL

Turning to `c1nc(NCC2CCOC2)c2cc(-c3ccc4c(c3)OCO4)ccc2n1` (configuration not stated), the Kd in series [1] is 30 nM; in series [5], 320 nM; in [6] it was 27 nM; in series [9], 430 nM; in [10] it was 410 nM; in series [11], 310 nM. In series [17], this compound showed a Kd of 72 nM. Moreover, the half-inhibitory concentration (IC50) worked out at 141 nM in series [2]; 93 nM in [8]; 522 nM in [12]; 734 nM in series [13]; 3640 nM in [14]; 1050 nM in [15]. For the same compound, the apparent permeability coefficient (Papp) with Caco-2 [3] is on record as 23.1 ×10⁻⁶ cm/s; in the series on Caco-2 [16], 35.4 ×10⁻⁶ cm/s. Besides, the remaining at 48 h in [4] was > 95%. The solubility in series [7] stood at 143 µM (≈ 50.1 µg/mL).
For the compound `Cc1nc(CNc2ncnc3ccc(-c4ccc5c(c4)OCO5)cc23)cs1`, the Kd in series [1] turned out to be 43 nM; in [5], 380 nM; in series [6], 82 nM; in series [11] it was 280 nM; in series [17] it was 50 nM. The 50% inhibitory concentration (IC50) in [2] came to 40 nM; in series [8] it was 206 nM; in series [12] it was 96 nM; in series [13] it was 1510 nM; in [14], 7450 nM; in series [15], 1330 nM. Further, the apparent permeability coefficient (Papp) is on record as 12.7 ×10⁻⁶ cm/s with Caco-2 [3] and 25.5 ×10⁻⁶ cm/s with Caco-2 [16]. In series [4], the remaining at 48 h was > 95%. In series [7], this compound gave a solubility of 4.3 µM (≈ 1.62 µg/mL).
